≈ marks a conversion by molar mass, not a printed value.
Key:
[1] = test system: Plasmodium falciparum; assay: Antimalarial activity against chloroquine-resistant Plasmodium falciparum W2 infected in human red blood cells assessed as reduction in parasitic LDH activity by Malstat reagent based spectrophotometric method; format: functional, organism-based
[2] = test system: Plasmodium falciparum; assay: Antimalarial activity against chloroquine-sensitive Plasmodium falciparum D6 infected in human red blood cells assessed as reduction in parasitic LDH activity by Malstat reagent based spectrophotometric method; format: functional, organism-based
[3] = test system: Plasmodium falciparum; assay: Antimalarial activity against chloroquine-sensitive Plasmodium falciparum 3D7; details: 3D7, read-out: ED50
[4] = test system: Plasmodium falciparum; assay: Antimalarial activity against chloroquine-resistant Plasmodium falciparum K1; format: functional; details: read-out: ED50 (the source's name)
[5] = test system: Plasmodium falciparum; assay: Antimalarial activity against chloroquine-resistant Plasmodium falciparum K1 infected in human type A+ erythrocytes after 48 hrs by [3H]-hypoxanthine incorporation assay; format: functional, organism-based
[6] = test system: Plasmodium falciparum; assay: Antimalarial activity against chloroquine-sensitive Plasmodium falciparum 3D7 infected in human type A+ erythrocytes after 48 hrs by [3H]-hypoxanthine incorporation assay; format: functional, organism-based
[7] = test system: Plasmodium falciparum; assay: Antimalarial activity against […] Plasmodium falciparum D6; format: functional
[8] = test system: Plasmodium falciparum; assay: Antimalarial activity against multiple drug-resistant Plasmodium falciparum C235; format: functional
[9] = Permeability from apical to basolateral side in MDCK cells; format: ADME, cell-based, Canis lupus familiaris; details: dog, read-out: permeability
[10] = Drug uptake in FVB mouse brain at 5 mg/kg, iv administered as single dose by UPLC-MS/MS based equilibrium dialysis method; format: ADME, organism-based; details: in vivo
[11] = Elimination half life in FVB mouse plasma at 5 mg/kg, iv administered as single dose; format: ADME, organism-based; details: read-out: beta t1/2 (converted)
[12] = test system: Plasmodium falciparum; assay: Antimalarial activity against chloroquine-sensitive Plasmodium falciparum 3D7 infected in human erythrocytes after 72 hrs by SYBR Green-1 staining based fluorescence assay; format: functional, organism-based; details: 3D7, 72 h
[13] = test system: Plasmodium falciparum; assay: Antimalarial activity against chloroquine-resistant Plasmodium falciparum FcB1/Columbia infected in human type A+ erythrocytes after 48 hrs by [3H]-hypoxanthine incorporation assay; format: functional, organism-based
[14] = test system: Plasmodium falciparum; assay: Antimalarial activity against chloroquine-resistant Plasmodium falciparum FCR-3/Gambia infected in human type A+ erythrocytes after 48 hrs by [3H]-hypoxanthine incorporation assay; format: functional, organism-based
[15] = test system: Plasmodium falciparum; assay: Antimalarial activity against chloroquine-resistant Plasmodium falciparum Palo Alto/Ouganda infected in human type A+ erythrocytes after 48 hrs by [3H]-hypoxanthine incorporation assay; format: functional, organism-based
[16] = test system: Plasmodium falciparum; assay: Antimalarial activity against chloroquine-resistant Plasmodium falciparum FcM29 infected in human type A+ erythrocytes after 48 hrs by [3H]-hypoxanthine incorporation assay; format: functional, organism-based
[17] = test system: Plasmodium falciparum; assay: Antimalarial activity against chloroquine-sensitive Plasmodium falciparum D6 infected in human type A+ erythrocytes after 48 hrs by [3H]-hypoxanthine incorporation assay; format: functional, organism-based
[18] = test system: Plasmodium falciparum; assay: Antimalarial activity against chloroquine-sensitive Plasmodium falciparum F32 infected in human type A+ erythrocytes after 48 hrs by [3H]-hypoxanthine incorporation assay; format: functional, organism-based
[19] = test system: Plasmodium falciparum; assay: Antimalarial activity against chloroquine-sensitive Plasmodium falciparum NF54 infected in human type A+ erythrocytes after 48 hrs by [3H]-hypoxanthine incorporation assay; format: functional, organism-based
[20] = test system: Plasmodium falciparum; assay: Antimalarial activity against chloroquine-sensitive Plasmodium falciparum FCH-5-C2 infected in human type A+ erythrocytes after 48 hrs by [3H]-hypoxanthine incorporation assay; format: functional, organism-based
[21] = test system: Plasmodium falciparum; assay: Antimalarial activity against chloroquine-sensitive Plasmodium falciparum HB3 infected in human type A+ erythrocytes after 48 hrs by [3H]-hypoxanthine incorporation assay; format: functional, organism-based
[22] = test system: Plasmodium falciparum; assay: Antimalarial activity against chloroquine-sensitive Plasmodium falciparum RF MEF3 infected in human type A+ erythrocytes after 48 hrs by [3H]-hypoxanthine incorporation assay; format: functional, organism-based
[23] = test system: Plasmodium falciparum; assay: Antimalarial activity against chloroquine-sensitive Plasmodium falciparum Ro73 infected in human type A+ erythrocytes after 48 hrs by [3H]-hypoxanthine incorporation assay; format: functional, organism-based
[24] = test system: Plasmodium falciparum; assay: Antimalarial activity against chloroquine-resistant Plasmodium falciparum RFCR-3 infected in human type A+ erythrocytes after 48 hrs by [3H]-hypoxanthine incorporation assay; format: functional, organism-based
[25] = test system: Plasmodium falciparum; assay: Antimalarial activity against chloroquine-resistant Plasmodium falciparum ItG2F6 infected in human type A+ erythrocytes after 48 hrs by [3H]-hypoxanthine incorporation assay; format: functional, organism-based
[26] = test system: Plasmodium falciparum; assay: Antimalarial activity against chloroquine-resistant Plasmodium falciparum INDO infected in human type A+ erythrocytes after 48 hrs by [3H]-hypoxanthine incorporation assay; format: functional, organism-based
[27] = test system: Plasmodium falciparum; assay: Antimalarial activity against chloroquine-resistant Plasmodium falciparum W2 infected in human type A+ erythrocytes after 48 hrs by [3H]-hypoxanthine incorporation assay; format: functional, organism-based
[28] = test system: Plasmodium falciparum; assay: Antimalarial activity against chloroquine-resistant Plasmodium falciparum 7G8 infected in human type A+ erythrocytes after 48 hrs by [3H]-hypoxanthine incorporation assay; format: functional, organism-based
[29] = test system: Plasmodium falciparum; assay: Antimalarial activity against chloroquine-resistant Plasmodium falciparum W2MEF infected in human type A+ erythrocytes after 48 hrs by [3H]-hypoxanthine incorporation assay; format: functional, organism-based
[30] = test system: Plasmodium falciparum; assay: Antimalarial activity against chloroquine-resistant Plasmodium falciparum T9/94 infected in human type A+ erythrocytes after 48 hrs by [3H]-hypoxanthine incorporation assay; format: functional, organism-based
[31] = test system: Plasmodium falciparum; assay: Antimalarial activity against chloroquine-sensitive Plasmodium falciparum 3D7 infected in human type A+ erythrocytes after 24 hrs by [3H]-hypoxanthine incorporation assay; format: functional, organism-based
[32] = test system: Plasmodium falciparum; assay: Antimalarial activity against chloroquine-resistant Plasmodium falciparum W2 infected in human type A+ erythrocytes after 24 hrs by [3H]-hypoxanthine incorporation assay; format: functional, organism-based
[33] = test system: Plasmodium falciparum; assay: microbe, parasite or virus in culture; details: D10, 24 h
Description: Antimalarial activity against chloroquine-sensitive Plasmodium falciparum D10 after 24 hrs by [G-3H]-hypoxanthine incorporation assay

[34] = test system: Plasmodium falciparum; assay: microbe, parasite or virus in culture; details: K1, 24 h
Description: Antimalarial activity against chloroquine-resistant Plasmodium falciparum K1 after 24 hrs by [G-3H]-hypoxanthine incorporation assay

[35] = test system: Plasmodium falciparum; assay: Antimalarial activity against chloroquine-sensitive Plasmodium falciparum Nigerian infected in human red blood cells after 48 hrs by [3H]-hypoxanthine incorporation assay; format: functional, organism-based
[36] = test system: Plasmodium falciparum; assay: Antimalarial activity against chloroquine-resistant Plasmodium falciparum FcB1 infected in human red blood cells after 48 hrs by [3H]-hypoxanthine incorporation assay; format: functional, organism-based
[37] = test system: Plasmodium falciparum; assay: Antimalarial activity against chloroquine-resistant Plasmodium falciparum FcM29 infected in human red blood cells after 48 hrs by [3H]-hypoxanthine incorporation assay; format: functional, organism-based

## Cc1cccc(C)c1Nc1nc(OCc2cn(CCNc3ccnc4cc(Cl)ccc34)nn2)nc(N(C)C)n1
[1]
  IC50: 730 nM
[2]
  IC50: 580 nM

## CCN(CC)CCCC(C)Nc1ccnc2cc(Cl)ccc12 (stereo not drawn) [CHLOROQUINE]
[3]
  EC50: 20 nM
[4]
  EC50: 1030 nM

## O=C1OC(CN2CCN(c3ccccc3F)CC2)CN1CCCNc1ccnc2cc(Cl)ccc12 (stereo not drawn)
[5]
  IC50: 62 to 430 nM
[6]
  IC50: 62 to 430 nM

## CN(CCNCC(O)c1cc(C(F)(F)F)nc2c(C(F)(F)F)cccc12)CC(O)c1cc(C(F)(F)F)nc2c(C(F)(F)F)cccc12 (stereo not drawn)
[7]
  IC90: 0.022 to 0.08 µg/mL (≈ 0.032 to 0.116 µM)
[8]
  IC90: 0.022 to 0.08 µg/mL (≈ 0.032 to 0.116 µM)
[9]
  Papp A→B: 0.14 ×10⁻⁶ cm/s
[10]
  Drug uptake: 97 ng/g
[11]
  half-life: 13 h

## C=C[C@H]1CN2CC[C@H]1C[C@H]2[C@H](OC(=O)[C@H](C)NC(=O)c1cn(CC)c2nc(C)ccc2c1=O)c1ccnc2ccc(OC)cc12
[12]
  IC50: 12 to 207 nM

## C=C[C@H]1CN2CC[C@H]1C[C@H]2[C@H](OC(=O)CNC(=O)c1cn2c3c(c(N4CCN(C)CC4)c(F)cc3c1=O)OC[C@@H]2C)c1ccnc2ccc(OC)cc12
[12]
  IC50: 12 to 207 nM

## O=C1OC(CN2CCN(c3ccccc3)CC2)CN1CCNc1ccnc2cc(Cl)ccc12 (stereo not drawn)
[5]
  IC50: 62 to 430 nM
[6]
  IC50: 62 to 430 nM

## COc1ccccc1N1CCN(CC2CN(CCNc3ccnc4cc(Cl)ccc34)C(=O)O2)CC1 (stereo not drawn)
[5]
  IC50: 62 to 430 nM
[6]
  IC50: 62 to 430 nM

## CC1(C)COC2(CCC(N[C@H]3CC[C@H](Nc4ccnc5cc(Cl)ccc45)CC3)CC2)OO1 (stereo partly drawn)
[13]
  IC50: 7 to 24 nM
[14]
  IC50: 7 to 24 nM
[15]
  IC50: 7 to 24 nM
[16]
  IC50: 7 to 24 nM
[17]
  IC50: 7 to 24 nM
[18]
  IC50: 7 to 24 nM

## Clc1ccc2c(N[C@@H]3CCCC[C@H]3Nc3ccnc4cc(Cl)ccc34)ccnc2c1
[19]
  IC50: 6 nM
[20]
  IC50: 4 to 13 nM
[21]
  IC50: 4 nM
[22]
  IC50: 4 to 13 nM
[23]
  IC50: 4 to 13 nM
[24]
  IC50: 4 to 13 nM
[25]
  IC50: 4 to 13 nM
[26]
  IC50: 4 to 13 nM
[27]
  IC50: 10 nM
[28]
  IC50: 4 to 13 nM
[29]
  IC50: 4 to 13 nM
[30]
  IC50: 4 to 13 nM
[5]
  IC50: 13 nM

## O[C@@]12OOC3(C=C1C[C@@H]1CC[C@H]2C1)CCN(c1ccnc2cc(Cl)ccc12)CC3
[31]
  IC50: 1400 to 2450 nM
[32]
  IC50: 1400 to 2450 nM

## O[C@@H](c1cc(C(F)(F)F)nc2c(C(F)(F)F)cccc12)[C@H]1CCCCN1 [(S,R)-MEFLOQUINE]
[10]
  Drug uptake: 1600 ng/g
[11]
  half-life: 23 h
[33]
  IC50: 90 nM
[34]
  IC50: 300 nM

## C=C[C@H]1CN2CC[C@H]1C[C@H]2[C@H](OC(=O)CNC(=O)c1cn(C2CC2)c2cc(N3CCN(CC)CC3)c(F)cc2c1=O)c1ccnc2ccc(OC)cc12
[12]
  IC50: 12 to 207 nM

## C=C[C@H]1CN2CC[C@H]1C[C@H]2[C@H](OC(=O)[C@H](Cc1ccccc1)NC(=O)c1cn2c3c(c(N4CCN(C)CC4)c(F)cc3c1=O)OC[C@@H]2C)c1ccnc2ccc(OC)cc12
[12]
  IC50: 12 to 207 nM

## O=C1OC(CN2CCN(c3ccccc3F)CC2)CN1CCCCCCNc1ccnc2cc(Cl)ccc12 (stereo not drawn)
[5]
  IC50: 62 to 430 nM
[6]
  IC50: 62 to 430 nM

## C[C@H]1COc2c(N3CCN(C)CC3)c(F)cc3c(=O)c(C(=O)O)cn1c23 [LEVOFLOXACIN]
[12]
  IC50: > 20000 nM

## O=C1OC(CN2CCN(c3ccccc3F)CC2)CN1CCNc1ccnc2cc(Cl)ccc12 (stereo not drawn)
[5]
  IC50: 62 to 430 nM
[6]
  IC50: 62 to 430 nM

## CCN(CC)CCCC(C)Nc1cc(CCCCCCCCCCc2cc(NC(C)CCCN(CC)CC)c3ccccc3n2)nc2ccccc12 (stereo not drawn)
[33]
  IC50: 43 nM

## O=C1OC(CN2CCN(c3ccc(F)cc3)CC2)CN1CCNc1ccnc2cc(Cl)ccc12 (stereo not drawn)
[5]
  IC50: 62 to 430 nM
[6]
  IC50: 62 to 430 nM

## O=C1OC(CN2CCN(c3ccccc3Cl)CC2)CN1CCNc1ccnc2cc(Cl)ccc12 (stereo not drawn)
[5]
  IC50: 62 to 430 nM
[6]
  IC50: 62 to 430 nM

## COc1ccc(OCc2cn(CCNc3ccnc4cc(Cl)ccc34)nn2)cc1
[1]
  IC50: 1120 nM
[2]
  IC50: 650 nM

## O=C1OC(CN2CCN(c3ccccc3F)CC2)CN1CCCCNc1ccnc2cc(Cl)ccc12 (stereo not drawn)
[5]
  IC50: 62 to 430 nM
[6]
  IC50: 62 to 430 nM

## C[C@@H]1CC[C@H]2[C@@H](C)C(=O)O[C@@H]3O[C@@]4(C)CC[C@@H]1[C@]32OO4 [ARTEMISININ]
[32]
  IC50: 19 nM

## C=C[C@H]1CN2CC[C@H]1C[C@H]2[C@H](OC(=O)CNC(=O)c1cn(CC)c2nc(C)ccc2c1=O)c1ccnc2ccc(OC)cc12
[12]
  IC50: 12 to 207 nM

## Fc1ccc(C(/C=C/C=C(\c2ccc(F)cc2)N2CCN(c3ccnc4cc(Cl)ccc34)CC2)=[N+]2CCN(c3ccnc4cc(Cl)ccc34)CC2)cc1
[35]
  IC50: 350 nM
[36]
  IC50: 444 nM
[37]
  IC50: 468 nM

## C=C[C@H]1CN2CC[C@H]1C[C@H]2[C@H](OC(=O)[C@@H](NC(=O)c1cn(C2CC2)c2cc(N3CCN(CC)CC3)c(F)cc2c1=O)[C@@H](C)CC)c1ccnc2ccc(OC)cc12
[12]
  IC50: 12 to 207 nM

## CO[C@@]12OOC3(C=C1C[C@@H]1C=C[C@H]2C1)CCN(c1ccnc2cc(Cl)ccc12)CC3
[31]
  IC50: 185 to 240 nM
[32]
  IC50: 185 to 240 nM

## O[C@@]12OOC3(C=C1C[C@@H]1C=C[C@H]2C1)CCN(c1ccnc2cc(Cl)ccc12)CC3
[31]
  IC50: 6050 to 6750 nM
[32]
  IC50: 6050 to 6750 nM

Source: ChEMBL document CHEMBL4190314, “Quinoline hybrids and their antiplasmodial and antimalarial activities” (Eur J Med Chem, 2017)
